Test results reported in publication PMC4700268 (Frontiers in Pharmacology, 2016).
Like-named read-outs stand apart in the source and are kept apart here. Values belong to the molecule of their own block, whether it stands above or below them.

Experiments:
[1] = tested on: HeLa cells transiently transfected with hOAT1; test: MTS cell viability assay in hOAT1 transfected HeLa cells; details: 24 h, hOAT1 vs empty vector transfected HeLa cells
Procedure: (§3) The Hela cells were plated in a 96-well plate and transfected with hOAT1 as described above. […] The controls were prepared simultaneously. After 24 h of incubation, the reagent from the kit CellTiter 96 AQueous One Solution Cell Proliferation Assay (CellTiter 96, PROMEGA, USA) was added. After 1.5 h of incubation at 37°C the absorbance was recorded at 490 nm.

[2] = ref Cundy, 1999; Kearney et al., 2005; Delahunty et al., 2006; cited from earlier work
hCNT2 = molecular target: T1, hCNT2 (Homo sapiens, UniProt O43868); test: Inhibition of [3H]uridine uptake in hCNT2 transfected MDCK II cells; type: in vitro ADME; parameters: host or cells: MDCK II cells, transient transfection; details: 1 μM [3H]uridine, 0–1000 μM, 2 min, MDCK II
T1 sequence (O43868 1-658): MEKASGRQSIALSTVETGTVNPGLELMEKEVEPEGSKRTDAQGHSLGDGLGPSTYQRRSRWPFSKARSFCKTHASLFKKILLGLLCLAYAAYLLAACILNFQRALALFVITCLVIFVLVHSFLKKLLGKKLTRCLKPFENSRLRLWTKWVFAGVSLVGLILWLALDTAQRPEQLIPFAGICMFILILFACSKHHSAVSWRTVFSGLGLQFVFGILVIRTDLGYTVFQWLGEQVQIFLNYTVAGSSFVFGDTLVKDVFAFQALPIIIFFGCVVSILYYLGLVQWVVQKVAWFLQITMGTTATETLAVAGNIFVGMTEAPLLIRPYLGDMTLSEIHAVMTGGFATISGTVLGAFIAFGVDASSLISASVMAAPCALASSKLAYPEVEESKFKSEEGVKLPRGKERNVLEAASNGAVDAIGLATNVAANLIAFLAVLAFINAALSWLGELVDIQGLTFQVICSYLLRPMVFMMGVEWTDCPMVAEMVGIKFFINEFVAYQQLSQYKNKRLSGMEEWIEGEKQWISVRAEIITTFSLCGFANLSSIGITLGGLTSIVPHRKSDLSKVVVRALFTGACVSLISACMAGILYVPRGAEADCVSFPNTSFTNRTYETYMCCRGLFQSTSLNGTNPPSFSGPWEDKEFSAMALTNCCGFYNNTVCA
Procedure: (§1) Inhibitory transport assays were carried out in 24-well plates as described previously ([Mandikova et al., 2013]). Transport assays in HeLa cells transiently transfected with the hOAT1 expression construct were performed 48 h after transfection. Transport assays in MDCK II cells transiently transfected with hOCT2, hCNT2 or hCNT3 were performed 24 h after transfection. The cultivation medium was removed and the cells were washed with transport solution and preincubated for 10 min at 37°C. The standard radiolabeled substrate or tested radioactive antiviral substance dissolved in transport solution was added to the cells and incubated for 2 min. [^3H]PAH (1 μM) was used as a prototypical substrate for OATs, [^3H]MPP^+ (1 μM) for OCTs and [^3H]uridine (1 μM) for CNTs. […] After the designated time period, the incubation was stopped by washing the cells twice with ice-cold solution containing 137 mM NaCl and 10 mM HEPES, pH 7.4. The cells were disintegrated with 0.1 mL of Triton X 0.5% in 100 mM NaOH for 1 h.
(§2) IC50 values were calculated using non-linear regression analysis using GraphPad Prism software (version 6).

hOAT1 = molecular target: T2, hOAT1 (Homo sapiens, UniProt Q4U2R8); parameters: method as in Ho et al. (2000); details: ref Ho et al. (2000); read-out: Km in CHO cells stably expressing hOAT1; cited from earlier work
T2 sequence (Q4U2R8 1-563): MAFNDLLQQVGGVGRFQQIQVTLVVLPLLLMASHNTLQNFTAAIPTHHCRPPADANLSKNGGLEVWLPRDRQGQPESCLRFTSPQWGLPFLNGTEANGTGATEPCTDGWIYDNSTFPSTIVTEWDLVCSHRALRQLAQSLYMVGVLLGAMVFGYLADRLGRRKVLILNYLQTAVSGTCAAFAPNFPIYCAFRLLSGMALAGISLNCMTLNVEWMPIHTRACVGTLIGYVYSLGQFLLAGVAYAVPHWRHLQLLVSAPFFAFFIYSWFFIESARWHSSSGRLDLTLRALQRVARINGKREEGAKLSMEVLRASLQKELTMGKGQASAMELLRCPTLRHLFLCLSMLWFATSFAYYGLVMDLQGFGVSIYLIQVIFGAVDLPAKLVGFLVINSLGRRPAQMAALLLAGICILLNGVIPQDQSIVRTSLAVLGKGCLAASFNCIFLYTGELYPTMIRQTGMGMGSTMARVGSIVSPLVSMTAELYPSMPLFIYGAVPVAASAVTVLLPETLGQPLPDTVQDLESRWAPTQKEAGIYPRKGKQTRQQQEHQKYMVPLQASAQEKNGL

hCNT3 = molecular target: T3, hCNT3 (Homo sapiens, UniProt Q9HAS3); test: Inhibition of [3H]uridine uptake in hCNT3 transfected MDCK II cells; type: in vitro ADME; parameters: host or cells: MDCK II cells, transient transfection; details: 1 μM [3H]uridine, 0–1000 μM, 2 min, MDCK II
T3 sequence (Q9HAS3 1-691): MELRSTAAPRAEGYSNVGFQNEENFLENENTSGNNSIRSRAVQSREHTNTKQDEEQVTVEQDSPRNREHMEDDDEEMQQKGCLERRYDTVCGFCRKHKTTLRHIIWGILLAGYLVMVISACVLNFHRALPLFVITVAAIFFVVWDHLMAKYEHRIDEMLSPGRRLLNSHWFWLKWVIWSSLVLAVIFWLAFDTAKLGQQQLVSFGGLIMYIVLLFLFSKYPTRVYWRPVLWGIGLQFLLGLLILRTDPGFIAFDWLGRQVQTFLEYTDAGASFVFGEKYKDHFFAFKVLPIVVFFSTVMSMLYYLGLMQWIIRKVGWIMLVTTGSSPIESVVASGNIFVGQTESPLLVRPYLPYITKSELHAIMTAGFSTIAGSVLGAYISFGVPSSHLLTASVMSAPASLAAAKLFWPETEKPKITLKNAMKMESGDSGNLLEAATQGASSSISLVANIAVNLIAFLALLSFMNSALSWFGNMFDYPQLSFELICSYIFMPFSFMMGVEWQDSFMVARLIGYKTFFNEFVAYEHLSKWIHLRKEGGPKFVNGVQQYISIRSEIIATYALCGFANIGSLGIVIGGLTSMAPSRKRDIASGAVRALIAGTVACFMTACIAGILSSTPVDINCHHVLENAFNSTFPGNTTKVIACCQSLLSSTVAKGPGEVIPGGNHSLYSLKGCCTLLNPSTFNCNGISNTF
Procedure: as §1, §2

[3] = tested on: HeLa cells transiently transfected with hOAT1
Procedure: as §3

not read [4] = substrate: C=C1[C@H](CO)[C@@H](O)C[C@@H]1n1cnc2c(=O)[nH]c(N)nc21; test: not read; details: 5 min, 37°C
not read [5] = substrate: C=C1[C@H](CO)[C@@H](O)C[C@@H]1n1cnc2c(=O)[nH]c(N)nc21; test: not read; type: in vitro ADME, human; details: other: HeLa cells transiently transfected with hOAT1, 5 min, 37°C

Molecule: Nc1ncnc2c1ncn2CCOCP(=O)(O)O [adefovir]
Effect of hOAT1 expression on cytotoxicity (cell viability) [1]: significantly enhanced the cytotoxic effect | Therapeutic plasma levels achieved in humans [2]: 0.1 µM | Inhibitory effect on hCNT2 (hCNT2): not observed | Km (hOAT1): 23.8 µM | Inhibitory effect on hCNT3 (hCNT3): not observed

Inhibitory effect on hCNT2 (hCNT2): not observed | Inhibitory effect on hCNT3 (hCNT3): not observed
Molecule: Nc1ccn(C[C@@H](CO)OCP(=O)(O)O)c(=O)n1 [cidofovir]
Effect of hOAT1 expression on cytotoxicity (cell viability) [1]: significantly enhanced the cytotoxic effect | Therapeutic plasma levels achieved in humans [2]: 70 µM

Inhibitory effect on hCNT2 (hCNT2): not observed | Inhibitory effect on hCNT3 (hCNT3): not observed
Molecule: C[C@H](Cn1cnc2c(N)ncnc21)OCP(=O)(O)O [tenofovir]
Therapeutic plasma levels achieved in humans [2]: 0.5 µM | Effect of hOAT1 expression on cytotoxicity (cell viability) [3]: significantly enhanced the cytotoxic effect

B1: hCNT3 (Homo sapiens) (protein)
chain: T3 sequence (Q9HAS3 1-691)
Km (not read [4]; other: hCNT3 transfected cells): 99.02 µM

B2: hOAT1 (Homo sapiens) (protein)
chain: T2 sequence (Q4U2R8 1-563)
notes: host or cells: HeLa cells, transient transfection
Km (not read [5]): 316.5 µM

B3: hCNT2 (Homo sapiens) (protein)
chain: T1 sequence (O43868 1-658)
Km (not read [4]; other: hCNT2 transfected cells): 1522.00 µM
